compound,measurement,value
COc1ccc(-c2cnc(SCC(=O)NCC[C@@H]3C[C@@H](Cc4ccc(Cl)c(Cl)c4)CN3)nc2)cc1OC.Cl,melting point,100.5 to 102.1 °C
